The term IC50 denotes the midpoint of a concentration-inhibition curve. Usually solubility stands for the concentration that dissolves in the medium under given conditions. High values mean much dissolved substance, low ones little dissolved substance.

One data set addresses T1, VEGFR1 (Homo sapiens, UniProt P17948).
T1 construct: purchased Invitrogen PR6731B
In words: Kinase inhibition, Mobility Shift Assay/IMAP, VEGFR1. The data set is classed as biochemical. Summed up: (§1)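 Substrate conversion (phosphorylated vs non-phosphorylated) read by mobility shift on Caliper EZ Reader II and converted to % inhibition relative to no-enzyme and DMSO controls. IC50 fitted from % inhibition versus log compound concentration.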

A further data set deals with T2, VEGFR3 (Homo sapiens, UniProt P35916).
T2 construct: purchased Invitrogen PV4129
T2 sequence (P35916 25-1363): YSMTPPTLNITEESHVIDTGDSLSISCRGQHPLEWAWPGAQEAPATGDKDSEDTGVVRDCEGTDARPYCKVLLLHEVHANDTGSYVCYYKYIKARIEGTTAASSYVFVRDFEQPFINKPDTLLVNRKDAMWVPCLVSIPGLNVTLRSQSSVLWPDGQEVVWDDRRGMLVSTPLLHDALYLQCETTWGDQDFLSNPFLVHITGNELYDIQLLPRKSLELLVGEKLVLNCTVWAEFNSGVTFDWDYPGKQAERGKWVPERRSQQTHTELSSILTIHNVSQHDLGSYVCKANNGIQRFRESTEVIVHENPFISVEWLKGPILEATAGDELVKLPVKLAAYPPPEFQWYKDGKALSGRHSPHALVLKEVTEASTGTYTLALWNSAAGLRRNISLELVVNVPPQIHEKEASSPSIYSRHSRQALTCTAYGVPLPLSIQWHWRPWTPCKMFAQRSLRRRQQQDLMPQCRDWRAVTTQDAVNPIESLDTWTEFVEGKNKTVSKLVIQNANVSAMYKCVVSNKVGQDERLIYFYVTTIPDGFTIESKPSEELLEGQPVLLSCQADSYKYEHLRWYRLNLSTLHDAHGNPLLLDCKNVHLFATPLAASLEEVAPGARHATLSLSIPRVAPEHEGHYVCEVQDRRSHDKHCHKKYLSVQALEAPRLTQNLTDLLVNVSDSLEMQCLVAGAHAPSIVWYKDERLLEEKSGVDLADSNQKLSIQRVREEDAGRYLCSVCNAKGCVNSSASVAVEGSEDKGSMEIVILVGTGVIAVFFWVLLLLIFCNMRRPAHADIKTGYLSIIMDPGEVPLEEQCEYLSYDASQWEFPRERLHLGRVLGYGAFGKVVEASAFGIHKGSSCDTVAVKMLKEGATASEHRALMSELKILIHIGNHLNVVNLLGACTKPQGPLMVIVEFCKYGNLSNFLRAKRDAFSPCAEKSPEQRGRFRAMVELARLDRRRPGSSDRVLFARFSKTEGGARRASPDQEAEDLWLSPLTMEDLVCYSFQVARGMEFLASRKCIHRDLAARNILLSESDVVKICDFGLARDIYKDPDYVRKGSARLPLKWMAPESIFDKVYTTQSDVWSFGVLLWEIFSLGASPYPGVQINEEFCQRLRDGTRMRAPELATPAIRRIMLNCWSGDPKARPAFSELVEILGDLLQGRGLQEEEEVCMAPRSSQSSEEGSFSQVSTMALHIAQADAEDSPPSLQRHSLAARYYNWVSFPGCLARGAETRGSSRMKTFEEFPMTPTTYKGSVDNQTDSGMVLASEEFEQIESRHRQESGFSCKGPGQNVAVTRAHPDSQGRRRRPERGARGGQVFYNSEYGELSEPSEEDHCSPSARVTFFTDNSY
Nature of the data set: Kinase inhibition, Mobility Shift Assay/IMAP, VEGFR3. The format is biochemical. A digest of the protocol: as §1

A further data set deals with T3, TIE2 (Homo sapiens, UniProt Q02763).
T3 construct: purchased BPS 40270
T3 sequence (Q02763 23-1124): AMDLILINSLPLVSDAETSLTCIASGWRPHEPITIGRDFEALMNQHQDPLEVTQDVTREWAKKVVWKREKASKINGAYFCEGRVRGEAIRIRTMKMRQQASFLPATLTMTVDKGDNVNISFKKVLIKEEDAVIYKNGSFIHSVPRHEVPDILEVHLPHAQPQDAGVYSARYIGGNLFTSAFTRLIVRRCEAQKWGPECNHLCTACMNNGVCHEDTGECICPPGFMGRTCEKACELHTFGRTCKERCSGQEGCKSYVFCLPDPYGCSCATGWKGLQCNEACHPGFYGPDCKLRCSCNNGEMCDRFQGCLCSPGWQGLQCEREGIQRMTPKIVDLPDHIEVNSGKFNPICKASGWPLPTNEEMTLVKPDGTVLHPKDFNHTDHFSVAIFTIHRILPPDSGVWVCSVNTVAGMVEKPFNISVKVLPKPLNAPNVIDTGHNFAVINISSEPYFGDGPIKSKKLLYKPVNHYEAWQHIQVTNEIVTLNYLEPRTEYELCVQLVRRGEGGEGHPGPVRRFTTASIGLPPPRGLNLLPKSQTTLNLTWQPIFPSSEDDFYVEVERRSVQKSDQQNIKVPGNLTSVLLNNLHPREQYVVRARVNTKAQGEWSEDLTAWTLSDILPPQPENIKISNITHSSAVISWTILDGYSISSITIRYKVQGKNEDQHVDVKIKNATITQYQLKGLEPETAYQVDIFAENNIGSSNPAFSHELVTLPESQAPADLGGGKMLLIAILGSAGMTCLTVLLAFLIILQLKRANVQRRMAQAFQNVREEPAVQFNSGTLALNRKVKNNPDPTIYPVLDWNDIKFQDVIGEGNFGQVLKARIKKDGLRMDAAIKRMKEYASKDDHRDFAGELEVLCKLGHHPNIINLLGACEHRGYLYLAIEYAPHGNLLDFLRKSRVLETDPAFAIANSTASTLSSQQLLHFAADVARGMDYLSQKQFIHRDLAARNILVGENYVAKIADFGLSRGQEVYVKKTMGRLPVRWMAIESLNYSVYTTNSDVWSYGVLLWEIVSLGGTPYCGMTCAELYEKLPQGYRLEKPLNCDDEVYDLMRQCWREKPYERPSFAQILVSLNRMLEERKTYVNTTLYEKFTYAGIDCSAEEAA
In words: Kinase inhibition, Mobility Shift Assay/IMAP, TIE2. The data set is classed as biochemical. A digest of the protocol: as §1

In a further data set the target is VEGFR2 (Homo sapiens, UniProt P35968). In words: Inhibition of VEGF-induced VEGFR2 autophosphorylation (pVEGFR2) in HUVEC cells, ELISA. The format is cell-based. As to conditions: 50 ng/mL human VEGF, compound 1 h. Details: endogenous in cells; host or cells: HUVEC. From the text: Vascular endothelial growth factor receptor 2 (VEGFR2) is a primary receptor for VEGF-induced endothelial cell signaling. After ligand binding, VEGFR2 is autophosphorylated and activated. The main function of signaling from VEGFR2 is to induce vascularization during development and after tissue injury, and to bypass blocked blood vessels. Pathologically, VEGF and VEGFR2 are involved in tumor angiogenesis and vascular leakage. They are considered to be main participants in many different cancers and ocular diseases that accompany pathological neovascularization. This assay measured the ability of the compounds to inhibit VEGF-induced VEGFR2 autophosphorylation (pVEGFR2) in HUVEC cells by using ELISA.
Sequence of VEGFR2 (P35968 20-1356): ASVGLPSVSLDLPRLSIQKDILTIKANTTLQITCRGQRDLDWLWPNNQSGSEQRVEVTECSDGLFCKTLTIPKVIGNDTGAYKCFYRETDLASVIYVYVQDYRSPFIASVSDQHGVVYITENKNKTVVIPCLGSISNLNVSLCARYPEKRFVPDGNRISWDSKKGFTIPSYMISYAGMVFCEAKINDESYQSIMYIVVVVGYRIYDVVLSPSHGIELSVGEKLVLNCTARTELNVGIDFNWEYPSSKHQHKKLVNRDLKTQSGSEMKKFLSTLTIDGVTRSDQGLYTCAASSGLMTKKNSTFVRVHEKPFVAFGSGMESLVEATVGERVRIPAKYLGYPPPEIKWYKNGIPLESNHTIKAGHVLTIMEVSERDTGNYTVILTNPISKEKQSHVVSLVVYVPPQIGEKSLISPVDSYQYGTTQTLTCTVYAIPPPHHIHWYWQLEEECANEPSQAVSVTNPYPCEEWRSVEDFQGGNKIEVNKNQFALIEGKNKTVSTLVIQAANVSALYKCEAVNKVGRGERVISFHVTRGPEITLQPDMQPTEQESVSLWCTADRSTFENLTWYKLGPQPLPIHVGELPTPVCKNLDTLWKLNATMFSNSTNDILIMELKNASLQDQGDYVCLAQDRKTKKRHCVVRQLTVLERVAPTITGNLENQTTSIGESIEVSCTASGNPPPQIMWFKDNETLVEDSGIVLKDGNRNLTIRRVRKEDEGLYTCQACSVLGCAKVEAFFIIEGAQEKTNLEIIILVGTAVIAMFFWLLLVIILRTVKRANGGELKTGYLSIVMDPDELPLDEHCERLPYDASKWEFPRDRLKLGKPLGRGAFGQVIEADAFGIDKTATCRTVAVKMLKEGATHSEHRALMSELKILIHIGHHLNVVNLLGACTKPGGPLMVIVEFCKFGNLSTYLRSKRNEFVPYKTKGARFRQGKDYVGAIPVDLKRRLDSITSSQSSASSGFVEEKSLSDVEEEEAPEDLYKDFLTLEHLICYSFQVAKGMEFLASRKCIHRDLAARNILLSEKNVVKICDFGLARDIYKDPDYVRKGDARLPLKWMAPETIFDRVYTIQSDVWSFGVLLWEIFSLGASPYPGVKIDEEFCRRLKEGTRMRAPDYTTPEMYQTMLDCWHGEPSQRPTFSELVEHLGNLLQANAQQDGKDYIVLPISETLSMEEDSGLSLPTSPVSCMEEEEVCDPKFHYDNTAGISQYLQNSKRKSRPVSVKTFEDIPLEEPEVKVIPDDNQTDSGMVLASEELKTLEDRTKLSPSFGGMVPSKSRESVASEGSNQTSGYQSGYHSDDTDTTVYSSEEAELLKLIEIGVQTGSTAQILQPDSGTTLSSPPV
Culture cells in a cell culture flask to reach a fusion degree of 60%-80% before cell inoculation. Dilute the cell suspension to […] with a pre-warmed complete medium. Add 80 μL of the cell suspension to all wells of a 96-well cell plate (Corning-3599); and incubate the plate overnight at 37° C. in the presence of 5% CO2. Dissolve the compound powder to 10 mM with DMSO and store it in a nitrogen cabinet. Compound dilution plate: Add a reference compound Ponatinib or a compound to be tested to a 96 V-well plate (Axygen-WIPP 2280) at concentrations achieved as follows: performing 3-fold gradient dilution starting from 5 mM (5 μL of 10 mM compound solution plus 5 μL of DMSO) for a total of 8 concentration points. […] Transfer 20 μL of the diluted compound from the intermediate plate to a cell plate. Then, incubate the cell plate for 1 h at 37° C. in the presence of 5% CO2. After the compound was treated for 1 h, add 25 μL of 250 ng/ml human VEGF at a final concentration of 50 ng/mL to a 96-well plate; and incubate the plate for 5 min at 37° C. in the presence of 5% CO2, centrifuge the plate for 10 min at 3,000 rpm, remove the medium and wash the cells once with 300 μL of pre-chilled DPBS per well. Then, centrifuge the plate for 10 min at 4,000 rpm, remove DPBS, and add 110 μL of pre-chilled 1× cell lysis buffer per well to the 96-well plate. Shake the plate for 40 min at 4° C. Then, freeze the plate in a refrigerator at −80° C. On the next day, remove the plate from the refrigerator at −80° C., thaw the plate, centrifuge the plate for 10 min at 3500 rpm, and add 100 μL of the supernatant per well to an ELISA plate. Seal the plate and incubate it for 2 h at 37° C. Wash the wells 4 times with 1× wash buffer. Add 100 μL of recombinant detection antibody per well. Seal the plate, incubate the plate for 1 h at 37° C., and repeat the step of plate washing. Add 100 μL of secondary antibody per well. Seal the plate, incubate the plate for 30 min at 37° C., and repeat the step of plate washing. Add 100 μL of TMB (protected from light) per well. Seal the plate, incubate the plate for 30 min at 37° C., and add 100 μL of the stop solution per well. Gently shake for 30 sec, measure the absorbance with a SpectraMax® 340 PC 384 Absorbance Microplate Reader within 30 min, and read an optical density value at 450 nm. Conduct data analysis using XL Fit software:
Conduct curve fitting using the 4 Parameter Logistic Model or Sigmoidal Dose-Response Model to obtain IC50 values.
X indicates the log value of compound concentration, Y indicates the inhibition rate (% inhibition), Top indicates the readout of the negative control wells, and Bottom indicates the readout of the positive control well.
(An ELISA detects its analyte on a solid surface through an enzyme-linked reagent.)

Data set [1] can be described thus: Solubility test in buffer, LC-MS. The format is physicochemical. As to conditions: aqueous buffer, thermodynamic from solid, room temperature, shaking 8 h, pH not given (method: pH 2.0, 6.5, 7.4). Summed up: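 Compound at 2 mg/mL in buffers of pH 2.0, 6.5 and 7.4, sonicated, shaken 8 h at room temperature, then centrifuged at 13,000 rpm. Supernatant quantified by LC-MS against a 3–5 point calibration.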

≈ marks a conversion by molar mass, not a printed value.

T1 sequence (P17948 27-1338): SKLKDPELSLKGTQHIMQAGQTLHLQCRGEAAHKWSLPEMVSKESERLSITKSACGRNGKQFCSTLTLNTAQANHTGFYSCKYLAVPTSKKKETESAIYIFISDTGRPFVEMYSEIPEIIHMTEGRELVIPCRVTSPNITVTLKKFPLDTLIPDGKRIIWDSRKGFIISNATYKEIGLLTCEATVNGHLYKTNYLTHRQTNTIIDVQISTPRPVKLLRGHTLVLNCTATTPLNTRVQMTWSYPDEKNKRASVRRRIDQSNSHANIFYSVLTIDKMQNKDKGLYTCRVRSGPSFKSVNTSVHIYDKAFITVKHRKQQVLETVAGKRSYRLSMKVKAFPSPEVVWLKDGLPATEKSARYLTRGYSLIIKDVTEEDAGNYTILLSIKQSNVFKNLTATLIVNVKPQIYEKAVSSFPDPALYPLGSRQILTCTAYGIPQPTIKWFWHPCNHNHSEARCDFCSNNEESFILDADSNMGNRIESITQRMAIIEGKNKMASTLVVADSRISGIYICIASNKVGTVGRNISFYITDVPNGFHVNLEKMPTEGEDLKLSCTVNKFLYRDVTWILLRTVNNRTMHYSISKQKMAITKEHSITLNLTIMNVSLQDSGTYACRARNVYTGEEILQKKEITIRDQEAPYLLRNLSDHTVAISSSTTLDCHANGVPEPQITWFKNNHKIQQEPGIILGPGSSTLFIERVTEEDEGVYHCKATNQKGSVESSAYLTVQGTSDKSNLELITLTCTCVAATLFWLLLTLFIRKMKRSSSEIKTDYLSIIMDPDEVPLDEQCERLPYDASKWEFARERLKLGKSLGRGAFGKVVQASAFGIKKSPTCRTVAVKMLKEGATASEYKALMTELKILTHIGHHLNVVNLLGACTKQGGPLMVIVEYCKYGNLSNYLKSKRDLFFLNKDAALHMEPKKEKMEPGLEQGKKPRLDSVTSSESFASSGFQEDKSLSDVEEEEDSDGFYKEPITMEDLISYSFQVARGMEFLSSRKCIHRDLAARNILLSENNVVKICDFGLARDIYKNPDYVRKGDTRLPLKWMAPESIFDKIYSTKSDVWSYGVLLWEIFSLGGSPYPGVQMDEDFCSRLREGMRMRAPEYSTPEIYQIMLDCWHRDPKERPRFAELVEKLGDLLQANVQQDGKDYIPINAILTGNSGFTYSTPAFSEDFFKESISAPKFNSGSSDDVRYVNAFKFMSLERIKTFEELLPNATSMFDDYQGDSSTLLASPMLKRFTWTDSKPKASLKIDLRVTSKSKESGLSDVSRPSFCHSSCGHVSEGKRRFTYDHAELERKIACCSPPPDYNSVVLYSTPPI

Take `NC(=O)c1c(OCc2cc(C(=O)NC3CC3)ccc2F)nsc1NC(=O)NCCCCN1CCCC1` [Compound T087, 3-[[5-(cyclopropylcarbamoyl)-2-fluoro-phenyl]methoxy]-5-(4-pyrrolidin-1-ylbutylcarbamoylamino)isothiazole-4-carboxamide]: the IC50 on VEGFR1 was determined as 1.11 nM; at VEGFR3, 0.8 nM; on TIE2 it was 1420 nM; at VEGFR2, 30 nM.
Turning to `NC(=O)c1c(OCc2cc3c(cc2F)CCO3)nsc1NC(=O)NCCCCN1CC[C@@H](O)C1` [Compound T091, 3-[(5-fluoro-2,3-dihydrobenzofuran-6-yl)methoxy]-5-[4-[(3R)-3-hydroxypyrrolidin-1-yl]butylcarbamoylamino] isothiazole-4-carboxamide], the figures for the half-maximal inhibitory concentration (IC50) on VEGFR1, at VEGFR3 and against VEGFR2 were 5.87 nM, 6.72 nM and 87 nM, respectively.
Regarding `CN1CCN(CCCNC(=O)Nc2snc(OCc3cc4c(cc3F)CCO4)c2C(N)=O)CC1` [Compound T101, 3-[(5-fluoro-2,3-dihydrobenzofuran-6-yl)methoxy]-5-[3-(4-methylpiperazin-1-yl)propylcarbamoylamino] isothiazole-4-carboxamide], the IC50 at TIE2 worked out at 163 nM; at VEGFR2, 103 nM.
As to `NC(=O)c1c(OCc2cc(C(=O)NC3CC3)ccc2F)nsc1NC(=O)NCCCN1CC[C@H](F)C1` [Compound T116, 3-[[5-(cyclopropylcarbamoyl)-2-fluoro-phenyl]methoxy]-5-[3-[(3S)-3-fluoropyrrolidin-1-yl]propylcarbamoylamino]isothiazole-4-carboxamide], the half-inhibitory concentration (IC50) on VEGFR1 was 1.21 nM; at VEGFR3, 4.8 nM; at TIE2, 2360 nM; on VEGFR2 it was 61 nM. Moreover, in data set [1], the solubility at 8 h came to 1090 µg/mL (≈ 2.08 mM).
Compound `CN1CCN(CCCNC(=O)Nc2snc(OCc3cc(C(=O)NC4CC4)ccc3F)c2C(N)=O)CC1` [Compound T118, 3-[[5-(cyclopropylcarbamoyl)-2-fluoro-phenyl]methoxy]-5-[3-(4-methylpiperazin-1-yl)propylcarbamoylamino]isothiazole-4-carboxamide] registered a 50% inhibitory concentration (IC50) on VEGFR2 of 48.2 nM. Further, in data set [1], the solubility at 8 h amounted to 2050 µg/mL (≈ 3.85 mM).
On to `NC(=O)c1c(OCc2cc(C(=O)NC3CC3)ccc2Cl)nsc1NC(=O)NCCCCN1CCCC1` [Compound T123, 3-[[2-chloro-5-(cyclopropylcarbamoyl)phenyl]methoxy]-5-(4-pyrrolidin-1-ylbutylcarbamoylamino)isothiazole-4-carboxamide], for which the half-inhibitory concentration (IC50) on TIE2 was found to be 973 nM; on VEGFR2 it was 0.78 nM.
Take `NC(=O)c1c(OCc2c(F)ccc(C(=O)NC3CC3)c2F)nsc1NC(=O)NCCCCN1CCCC1` [Compound T124, 3-[[3-(cyclopropylcarbamoyl)-2,6-difluoro-phenyl]methoxy]-5-(4-pyrrolidin-1-ylbutylcarbamoylamino)isothiazole-4-carboxamide]: the IC50 came out at 2890 nM at TIE2 and 16.2 nM at VEGFR2. The same compound displayed a solubility at 8 h in data set [1] of 1950 µg/mL (≈ 3.63 mM).

Source of the values: patent US20260217698A1 (BEYANG THERAPEUTICS CO., LTD., priority 2022, published 2026).
